Assay results reported in US9334269B2, “Carboxamides as inhibitors of voltage-gated sodium channels” (AMGEN INC., priority 2010, dated 2016).

Biological target: T1, human Nav1.7 (hNav1.7) (Homo sapiens, UniProt Q15858)
T1 construct: expressed in transfected cells
Experiment: hNav1.7 whole-cell patch-clamp electrophysiology (automated PatchXpress 7000A or manual) in stably expressing 293 cells
Format: cell-based
Protocol: Compounds were tested on human Nav1.7 (hNav1.7) expressed stably in 293 cells, which have no endogenous sodium channels. Two forms of whole-cell patch-clamp assays were used. In both, peak current through Nav1.7 was evoked by a depolarizing voltage pulse, and currents were monitored as a function of time in response to exposure to several different concentrations of drug. Automated electrophysiology uses the PatchXpress 7000A system. Up to sixteen cells at a time were voltage-clamped in parallel, and the steady-state voltage dependence of inactivation was determined experimentally for each cell. For each cell, fractional inactivation was set at 20%, and peak current through Nav1.7 as a function of time was measured in response to increasing concentrations of test compound. Manual electrophysiology refers to conventional whole-cell patch-clamping (Hamill et al., 1981). After formation of the whole-cell clamp, cells were lifted off the bottom of the dish with the patch pipette and positioned directly in front of an array of glass microperfusion tubes each with internal diameter about 250 microns, with individual compound concentrations flowing from each tube. Current as a function of time in response to increasing drug concentrations was measured with Nav1.7 fully in the resting state (holding voltage set to −140 mV) and on the same cells with the holding voltage set to produce about 20% inactivation. Compounds were not applied for a prespecified time, but for as long as required to achieve a stable level of block. For both forms of electrophysiology, offline analysis was used to correct for rundown of channel current and to determine percent inhibition as a function of drug concentration. IC50 were determined by fitting to the Hill equation.

[1] = human Nav1.7 stably expressed in 293 cells, whole-cell patch clamp, average IC50 from Hill fit

T1 sequence (Q15858 whole entry): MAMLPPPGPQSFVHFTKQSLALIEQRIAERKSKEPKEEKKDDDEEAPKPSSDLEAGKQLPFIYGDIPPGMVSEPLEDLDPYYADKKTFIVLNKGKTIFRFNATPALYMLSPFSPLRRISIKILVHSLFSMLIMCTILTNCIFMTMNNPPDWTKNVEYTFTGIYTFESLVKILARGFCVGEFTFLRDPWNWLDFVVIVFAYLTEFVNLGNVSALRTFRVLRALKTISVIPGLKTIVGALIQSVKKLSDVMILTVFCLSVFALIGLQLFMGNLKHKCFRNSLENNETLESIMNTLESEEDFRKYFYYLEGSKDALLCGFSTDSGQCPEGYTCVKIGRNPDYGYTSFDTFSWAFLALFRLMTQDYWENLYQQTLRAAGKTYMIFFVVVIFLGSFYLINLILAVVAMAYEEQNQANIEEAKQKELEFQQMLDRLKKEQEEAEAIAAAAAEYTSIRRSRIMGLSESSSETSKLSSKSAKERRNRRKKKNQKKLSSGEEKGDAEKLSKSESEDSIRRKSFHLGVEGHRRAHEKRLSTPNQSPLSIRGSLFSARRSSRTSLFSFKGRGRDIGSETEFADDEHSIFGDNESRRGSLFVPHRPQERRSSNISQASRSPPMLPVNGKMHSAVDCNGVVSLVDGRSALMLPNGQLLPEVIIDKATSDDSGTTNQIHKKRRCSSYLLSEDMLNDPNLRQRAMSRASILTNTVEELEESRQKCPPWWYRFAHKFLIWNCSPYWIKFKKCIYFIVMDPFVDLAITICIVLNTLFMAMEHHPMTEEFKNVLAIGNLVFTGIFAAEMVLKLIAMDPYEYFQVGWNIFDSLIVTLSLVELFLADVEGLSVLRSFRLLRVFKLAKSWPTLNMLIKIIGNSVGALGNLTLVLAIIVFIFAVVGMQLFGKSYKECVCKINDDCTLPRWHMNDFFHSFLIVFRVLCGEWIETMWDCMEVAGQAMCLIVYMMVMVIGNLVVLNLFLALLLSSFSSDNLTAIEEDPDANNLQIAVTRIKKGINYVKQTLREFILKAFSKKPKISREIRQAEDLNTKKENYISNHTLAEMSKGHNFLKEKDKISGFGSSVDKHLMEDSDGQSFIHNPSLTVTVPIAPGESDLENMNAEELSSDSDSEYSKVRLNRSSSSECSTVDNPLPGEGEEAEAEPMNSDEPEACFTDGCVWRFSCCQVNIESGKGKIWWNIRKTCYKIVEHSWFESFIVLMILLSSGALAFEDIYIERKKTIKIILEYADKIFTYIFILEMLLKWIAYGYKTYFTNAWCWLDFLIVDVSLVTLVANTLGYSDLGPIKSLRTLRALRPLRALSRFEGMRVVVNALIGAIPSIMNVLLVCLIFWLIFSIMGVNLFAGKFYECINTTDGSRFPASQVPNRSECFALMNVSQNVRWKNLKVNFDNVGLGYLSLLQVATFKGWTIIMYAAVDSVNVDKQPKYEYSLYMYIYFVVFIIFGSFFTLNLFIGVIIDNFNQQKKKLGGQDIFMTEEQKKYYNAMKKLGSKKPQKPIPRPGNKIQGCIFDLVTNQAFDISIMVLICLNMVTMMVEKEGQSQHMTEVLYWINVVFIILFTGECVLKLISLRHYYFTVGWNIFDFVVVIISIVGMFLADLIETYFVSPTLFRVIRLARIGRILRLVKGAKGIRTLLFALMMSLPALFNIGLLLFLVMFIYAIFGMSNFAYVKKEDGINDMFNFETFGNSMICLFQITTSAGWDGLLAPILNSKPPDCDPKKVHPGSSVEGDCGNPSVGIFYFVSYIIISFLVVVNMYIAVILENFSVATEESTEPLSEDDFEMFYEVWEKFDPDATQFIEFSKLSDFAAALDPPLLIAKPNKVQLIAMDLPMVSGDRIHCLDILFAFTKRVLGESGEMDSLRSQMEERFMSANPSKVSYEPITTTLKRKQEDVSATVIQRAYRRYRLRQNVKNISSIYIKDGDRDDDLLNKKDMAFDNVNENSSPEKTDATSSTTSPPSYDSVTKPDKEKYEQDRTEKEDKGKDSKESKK

| Structure (SMILES) | IC50 (average IC50, human Nav1.7) [µM] | further results |
| --- | --- | --- |
| CNC(=O)c1cccc(Nc2ccnc(N3CC(COc4ccc(Cl)cc4)C3)n2)c1 [Example 197] | 6.8 |  |
| CNC(=O)c1cccc(Nc2ncnc(N3CCc4c(Cl)cccc4C3)n2)c1 [Example 142] | 2.8 |  |
| CNC(=O)c1cccc(Nc2ncnc(N3CC(Oc4ccccc4Cl)C3)n2)c1 [Example 29] | 0.42 |  |
| CNC(=O)c1cccc(Nc2ncnc(N3CC(COc4cccc(OC(F)(F)F)c4)C3)n2)c1 [Example 171] | 4.33 |  |
| CNC(=O)c1cccc(Nc2ncnc(N3CCN(c4ccc(OC(F)(F)F)cc4)CC3)n2)c1 [Example 82] | 1.06 |  |
| CNC(=O)c1cccc(Nc2ncnc(N3CCC(c4ccccc4)CC3)n2)c1 [Example 65] | 0.84 |  |
| CNC(=O)c1cccc(Nc2ncnc(N3CC(Oc4ccccc4C#N)C3)n2)c1 [Example 297] |  | IC50 (average IC50): > 30 µM |
| CNC(=O)c1cccc(Nc2ncnc(N3CCc4ccc(C(F)(F)F)cc4C3)n2)c1 [Example 298] |  | IC50 (average IC50): > 30 µM |
| CNC(=O)c1cccc(Nc2ncnc(N3CCN(c4ccc(OC)cc4)CC3)n2)c1 [Example 159] | 3.5 |  |
| CNC(=O)c1cccc(Nc2ncnc(N3CCC(c4ccc(OC(F)(F)F)cc4)CC3)n2)c1 [Example 135] | 2.59 |  |
| CNC(=O)c1cccc(Nc2ncnc(N3CCC(Oc4ccccc4OC(F)(F)F)CC3)n2)c1 [Example 209] | 8.15 |  |
| CNC(=O)c1cccc(Nc2ncnc(N3CC(COc4cccc(C(F)(F)F)c4)C3)n2)c1 [Example 188] | 5.44 |  |
| CNC(=O)c1cc(Nc2ncnc(N3CC(Oc4ccc(F)cc4)C3)n2)ccc1F [Example 57] | 0.76 |  |
| CNC(=O)c1cccc(Nc2ncnc(N3CCc4cccc(C(F)(F)F)c4C3)n2)c1 [Example 269] |  | IC50 (average IC50): 21 µM |
| CNC(=O)c1cccc(Nc2ncnc(N3CC(Oc4cc(C)ccc4F)C3)n2)c1 [Example 155] | 3.17 |  |
| CNC(=O)c1cccc(Nc2ncnc(NCCCOc3ccc(OC(F)(F)F)cc3)n2)c1C [Example 156] | 3.34 |  |
| CNC(=O)c1cccc(Nc2ncnc(N3CCCC(Oc4cccc(Cl)c4)C3)n2)c1 (stereo not shown) [Example 278] |  | IC50 (average IC50): 26 µM |
| CNC(=O)c1cc(Nc2ncnc(NCCCOc3ccc(OC(F)(F)F)cc3)n2)ccc1Cl [Example 75] | 0.96 |  |
| CNC(=O)c1cccc(Nc2ncnc(N3CCC(Oc4ccccc4Cl)CC3)n2)c1 [Example 85] | 1.17 |  |
| CNC(=O)c1cccc(Nc2ncnc(N3CC(Oc4cc(C)ccc4Cl)C3)n2)c1 [Example 66] | 0.84 |  |
| CNC(=O)c1cccc(Nc2ncnc(N3CC(Oc4ccc(Cl)cc4C)C3)n2)c1 [Example 20] | 0.32 |  |
| CNC(=O)c1cccc(Nc2ncnc(N3CC(Oc4ccc(C)cc4Cl)C3)n2)c1 [Example 32] | 0.44 |  |
| CNC(=O)c1ccc(F)c(Nc2ncnc(N3CC(Oc4ccc(F)cc4)C3)n2)c1 [Example 165] | 3.82 |  |
| CNC(=O)c1cccc(Nc2ncnc(N[C@H](C)CCc3ccccc3)n2)c1 [Example 120] | 2.09 |  |
| CNC(=O)c1cccc(Nc2ncnc(N3CCc4c(cccc4OC)C3)n2)c1 [Example 138] | 2.74 |  |
| CNC(=O)c1cccc(Nc2ncnc(N3CC(Oc4ccc(C#N)c(Cl)c4)C3)n2)c1 [Example 128] | 2.31 |  |
| CNC(=O)c1cccc(Nc2ncnc(N3CCC(OCc4ccc(F)c(F)c4)CC3)n2)c1 [Example 228] | 9.42 |  |
| CNC(=O)c1cccc(Nc2nccc(N3CC(Oc4ccc(Cl)cc4Cl)C3)n2)c1 [Example AAA, 3-(4-(3-(2,4-dichlorophenoxy)azetidin-1-yl)pyrimidin-2-ylamino)-N-methylbenzamide] |  | IC50 [1]: 0.52 µM |

| Structure (SMILES) | IC50 (average IC50, human Nav1.7) [µM] | further results |
| --- | --- | --- |
| CNC(=O)c1cccc(Nc2ncnc(N3CC(Oc4ccc(F)c(Cl)c4)C3)n2)c1 [Example 15] | 0.28 |  |
| CNC(=O)c1cccc(Nc2ncnc(N3CCC(C#N)(c4ccc(F)cc4)CC3)n2)c1 [Example 245] | 12.5 |  |
| CNC(=O)c1cccc(Nc2ncnc(N3CC(COc4cccc(F)c4)C3)n2)c1 [Example 242] | 11.2 |  |
| CNC(=O)c1cccc(Nc2nccc(N3CC(Oc4ccc(C)cc4)C3)n2)c1 [Example B, N-methyl-3-((4-(3-(4-methylphenoxy)-1-azetidinyl)-2-pyrimidinyl)amino)benzamide] |  | IC50 [1]: 2 µM |
| CNC(=O)c1cccc(Nc2ncnc(N3CC(Oc4cccc(Cl)c4)C3)n2)c1 [Example 25] | 0.38 |  |
| Cc1c(Nc2ncnc(N3CCC(OCc4ccc(OC(F)(F)F)cc4)CC3)n2)cccc1C(N)=O [Example 267] |  | IC50 (average IC50): 20.9 µM |
| CNC(=O)c1cccc(Nc2ncnc(N3CC(Oc4c(F)cc(Cl)cc4F)C3)n2)c1 [Example 153] | 3.16 |  |
| CNC(=O)c1cccc(Nc2ncnc(N3CCC(OCc4ccccc4)CC3)n2)c1 [Example 206] | 7.93 |  |
| CNC(=O)c1cccc(Nc2nccc(N3CCc4cc(OCC(F)(F)F)ccc4C3)n2)c1 [Example AI, N-methyl-3-((4-(6-(2,2,2-trifluoroethoxy)-3,4-dihydro-2(1H)-isoquinolinyl)-2-pyrimidinyl)amino)benzamide] |  | IC50 [1]: 1.44 µM |
| CNC(=O)c1cccc(Nc2ncnc(N3CCN(c4ccc(OC(F)(F)F)cc4)CC3)n2)c1C [Example 202] | 7.12 |  |
| CN(C)C(=O)c1cccc(Nc2ncnc(N3CCC(OCc4ccc(OC(F)(F)F)cc4)CC3)n2)c1 [Example 240] | 11.1 |  |
| CNC(=O)c1cccc(Nc2ncnc(N3CCc4c(cccc4OCCOC)C3)n2)c1 [Example 252] | 15 |  |
| CNC(=O)c1cccc(Nc2nccc(N3CC(Oc4ccc(Cl)c(C)c4)C3)n2)c1 [Example L, 3-((4-(3-(4-chloro-3-methylphenoxy)-1-azetidinyl)-2-pyrimidinyl)amino)-N-methylbenzamide] |  | IC50 [1]: 0.31 µM |
| CNC(=O)c1cccc(Nc2ncnc(N3CCC(Oc4ccc(Cl)c(OC(F)(F)F)c4)CC3)n2)c1 [Example 166] | 4.05 |  |
| CNC(=O)c1cc(Nc2ncnc(N3CC(Oc4ccc(Cl)cc4F)C3)n2)ccc1F [Example 14] | 0.28 |  |
| CNC(=O)c1cccc(Nc2ncnc(NCCCc3ccc(Cl)cc3)n2)c1 [Example 232] | 9.84 |  |
| COCCNC(=O)c1cccc(Nc2ncnc(N3CC(COc4ccc(Cl)cc4)C3)n2)c1 [Example 47] | 0.64 |  |
| CNC(=O)c1cccc(Nc2cc(N3CC(Oc4ccc(F)cc4)C3)ncn2)c1 [Example 218] | 8.68 |  |
| CNC(=O)c1cccc(Nc2ccnc(N3CC(Oc4ccc(F)cc4)C3)c2)c1 [Example V, 3-((2-(3-(4-fluorophenoxy)-1-azetidinyl)-4-pyridinyl)amino)-N-methylbenzamide] |  | IC50 [1]: 5.78 µM |
| CNC(=O)c1cc(F)cc(Nc2ncnc(N3CC(Oc4ccc(F)c(Cl)c4)C3)n2)c1 [Example 121] | 2.09 |  |
| CNC(=O)c1cccc(Nc2ncnc(N3CCN(c4cccc(Cl)c4)CC3)n2)c1 [Example 69] | 0.87 |  |
| CNC(=O)c1cccc(Nc2ncnc(N3CCc4ccc(Cl)cc4C3)n2)c1 [Example 279] |  | IC50 (average IC50): 26.4 µM |
| CNC(=O)c1cccc(Nc2ncnc(N3CC(Oc4cccc(C(C)(C)C)c4)C3)n2)c1 [Example 134] | 2.58 |  |
| CNC(=O)c1cccc(Nc2ncnc(N3CC(OCc4ccc(OC(F)(F)F)cc4)C3)n2)c1 [Example 94] | 1.32 |  |
| CNC(=O)c1cccc(Nc2ncnc(N3CC(Oc4ccccc4F)C3)n2)c1 [Example 192] | 5.6 |  |
| CNC(=O)c1cccc(Nc2ncnc(N3CCC(c4nc(C(C)C)no4)CC3)n2)c1 [Example 231] | 9.66 |  |
| CNC(=O)c1cccc(Nc2ncnc(N3CCc4cc(Cl)ccc4C3)n2)c1 [Example 130] | 2.44 |  |
